System: HCV-JFH-1
Experiment: Chronic HCV-JFH-1 infection of Huh7-1 cells, inhibitor combinations, RT-qPCR 24-96 h (FIG. 3-5)
Assay type: cell-based, Hepatitis C virus (HCV)
Experimental: RT-qPCR analysis of intracellular HCV RNA levels in Huh7 cultures mock-treated, treated with ezetimibe (30 μM), PI (200 nM), IFN-α (100 U/ml), or indicated combinations thereof (n=3). Data presented are representative of multiple independent experiments.
FIG. 4A, Chronically infected Huh7-1 cell cultures (n=3) treated with ezetimibe (E), naringenin (N), interferon α (I), or combinations thereof, were harvested at 24, 48, 72 or 96 hours post-treatment, intracellular HCV levels were quantified by RT-qPCR, and are presented as HCV copies/μg RNA. FIG. 4B, Chronically infected Huh7-1 cell cultures (n=3) treated with ezetimibe (E), ferristatin (T), interferon α (I), or combinations thereof, were harvested at 24, 48, 72 or 96 hours post-treatment, intracellular HCV levels were quantified by RT-qPCR, and are presented as HCV copies/μg RNA.
Shown are the results of RT-qPCR analysis of intracellular HCV RNA levels in Huh7 cultures mock-treated, treated with ezetimibe (30 μM), polymerase inhibitor, RG7128 (1 μM), or a combination thereof (n=3).
For experiments analyzing the activity of ezetimibe in combination with a protease inhibitor, Huh7-1 cells were infected with HCV-JFH-1 and allowed to reach steady state levels of infection. The HCV-infected cells were seeded in a 96-well plate and treated with the following: medium alone, 30 μM ezetimibe, 200 nM ITMN5537, 100 μ/ml IFN-α, and combinations of the above drugs at the specified concentrations. Medium and drugs were replaced every 24 hours. Triplicate wells were harvested at 24, 48, 72 or 96 hours post-treatment, in 200 μl/well of 1×ABI lysis buffer and stored at −80° C. until RNA extraction.
Therefore, the therapeutic potential of an IFN-free antiviral cocktail was also investigated, using ezetimibe in combination with other direct acting inhibitors of HCV amplification, specifically an inhibitor of the HCV NS3/4A protease (ITMN 5537; Intermune, Brisbane, Calif.). Huh7-1 cells were infected with HCV-JFH-1 and allowed to reach steady state levels of infection. Cells were monotreated with protease inhibitor (PI) or ezetimibe or IFN alone or treated with combinations of PI+ezetimibe or PI+IFN or IFN+ezetimibe or a combination of all three inhibitors. Samples were harvested at 24, 48, 72 or 96 hours post-treatment, the intracellular RNA was extracted and RT-qPCR performed to quantify HCV copies.
Thus, parallel cultures of chronically infected Huh7-1 cells were established and subsequently treated with ezetimibe, naringenin or IFN-α, either alone or in combination. Treatments were replenished every 24 hours. Triplicate cultures of each treatment condition were harvested at 24, 48, 72 or 96 hours post-treatment and intracellular HCV levels were quantified by RT-qPCR (FIG. 4A). […] Thus, no evidence of synergy was observed when IFN-α was combined with an egress inhibitor that only blocks cell-free spread.
As an alternative method of determining the therapeutic importance of inhibiting HCV cell-to-cell spread, an inhibitor to TfR1 was used. TfR1 has also been identified as another host cell factor that is involved in cell-free entry of HCV into cells, but is not required for cell-to-cell-mediated HCV entry. Thus, unlike ezetimibe which inhibits both cell-free and cell-to-cell HCV spread, the TfR1 inhibitor, ferristatin, only blocks cell-free virus spread. Again, chronically infected Huh7-1 cell cultures were established and treated with ezetimibe (30 μM), ferristatin (50 μM), or IFN-α (100 U/ml), either alone or in combination and treatments were replenished every 24 hours. Intracellular HCV copies were quantified from triplicate cultures by RT-qPCR at 24, 48, 72 or 96 hours post-treatment (FIG. 4B).
Huh7-1 cells were infected with HCV-JFH-1 and allowed to reach steady state levels of infection. Cells were monotreated with HCV polymerase inhibitor RG7128 (1 μM) or ezetimibe (30 μM) alone or treated with a combination of RG7128 and ezetimibe. […]

SMILES	reduction of HCV levels (FIG. 5) (RG7128 1 μM, ezetimibe 30 μM, normalized to Mock)	reduction of HCV levels (FIG. 3) (ezetimibe 30 μM, PI 200 nM, IFN-α 100 U/ml)	decrease in intracellular HCV load (FIG. 4B) (ezetimibe 30 μM, ferristatin 50 μM, IFN-α 100 U/ml)	reduction of HCV copies (FIG. 4A) (ezetimibe, naringenin, IFN-α alone or in combination)	increase in intracellular HCV copies (FIG. 4A) (naringenin alone)
O=C1[C@H](CC[C@H](O)c2ccc(F)cc2)[C@@H](c2ccc(O)cc2)N1c1ccc(F)cc1 [ezetimibe, 1-(4-fluorophenyl)-(3R)-[3-(4-fluorophenyl)-(3S)-hydroxypropyl]-(45)-(4-hydroxyphenyl)-2-azetidinone]	did not reduce HCV levels	did not reduce HCV levels	neither ezetimibe nor ferristatin alone reduced intracellular HCV load	did not reduce HCV levels	–
O=C1C[C@@H](c2ccc(O)cc2)Oc2cc(O)cc(O)c21 [naringenin]	–	–	–	–	about 50%

— patent US9034863B2, “Compositions and methods for inhibiting entry of a hepatic virus” (The Board of Trustees of the University of Illinois, priority 2008, dated 2015)
